Assay [1] has as its system GluN2C/D-containing NMDA receptors. Briefly: Potentiation of NMDA receptors, results stated jointly for both subtypes. In kind it is cell-based, rat. Particulars: for EC50: read-out: EC50, GluN2C/GluN2D stated jointly, maximally effective concentrations of glutamate and glycine.
A further assay deals with GluA1 (Rattus norvegicus, UniProt P19490). Briefly: Two electrode voltage clamp recordings, Xenopus laevis oocytes. It counts as cell-based. The conditions noted are these: co-applied with 100 µM glutamate.
Sequence of GluA1 (P19490 19-907): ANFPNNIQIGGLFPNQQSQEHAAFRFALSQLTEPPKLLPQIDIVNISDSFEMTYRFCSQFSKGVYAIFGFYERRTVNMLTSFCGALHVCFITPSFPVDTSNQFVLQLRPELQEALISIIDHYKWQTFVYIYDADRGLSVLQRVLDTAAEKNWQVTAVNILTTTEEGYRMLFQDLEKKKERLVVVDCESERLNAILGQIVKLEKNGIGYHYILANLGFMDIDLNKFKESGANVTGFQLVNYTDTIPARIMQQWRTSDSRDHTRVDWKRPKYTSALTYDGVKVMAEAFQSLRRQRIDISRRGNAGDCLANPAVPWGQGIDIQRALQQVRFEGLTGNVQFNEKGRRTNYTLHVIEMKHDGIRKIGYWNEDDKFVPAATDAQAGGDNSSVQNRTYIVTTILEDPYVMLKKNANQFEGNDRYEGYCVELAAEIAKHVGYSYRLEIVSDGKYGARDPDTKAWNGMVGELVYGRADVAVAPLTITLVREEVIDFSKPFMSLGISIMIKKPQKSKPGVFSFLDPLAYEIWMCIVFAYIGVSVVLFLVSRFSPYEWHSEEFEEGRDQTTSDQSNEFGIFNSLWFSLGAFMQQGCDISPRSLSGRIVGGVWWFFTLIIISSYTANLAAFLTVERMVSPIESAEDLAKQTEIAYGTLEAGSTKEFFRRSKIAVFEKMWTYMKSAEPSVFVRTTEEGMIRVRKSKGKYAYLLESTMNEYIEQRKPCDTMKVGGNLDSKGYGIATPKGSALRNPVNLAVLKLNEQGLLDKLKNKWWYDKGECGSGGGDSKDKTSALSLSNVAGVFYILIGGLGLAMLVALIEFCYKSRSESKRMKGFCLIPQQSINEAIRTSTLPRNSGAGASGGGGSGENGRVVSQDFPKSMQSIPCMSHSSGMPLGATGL

This is an account of results in publication PMC4850841 (Journal of medicinal chemistry, 2013).

Molecules are shown by their SMILES.

Regarding `COc1ccc(OCC2c3ccc(OCc4ccccc4)cc3CCN2C(=O)c2cccc(Cl)c2)cc1` (centres unmarked) [compound 82, (6-(benzyloxy)-1-((4-methoxyphenoxy)methyl)-3,4-dihydroisoquinolin-2(1H)-yl)(3-chlorophenyl)methanone], the EC50 in assay [1] was 0.3 to 0.4 µM.

Take `COc1ccc(OCC2c3cc(OC)c(OC)cc3CCN2C(=O)c2cc(Cl)cc(Cl)c2)cc1` (centres unmarked) [compound 87, (3,5-dichlorophenyl)(6,7-dimethoxy-1-((4-methoxyphenoxy)methyl)-3,4-dihydroisoquinolin-2(1H)-yl)methanone]: the “effect on homomeric GluA1 responses” value on GluA1 was “no effects”.

Consider `COc1ccc(OCC2c3cc(OC)c(OC)cc3CCN2C(=O)c2cccc(CCl)c2)cc1` (centres unmarked) [compound 96, (3-(chloromethyl)phenyl)(6,7-dimethoxy-1-((4-methoxyphenoxy)methyl)-3,4-dihydroisoquinolin-2(1H)-yl)methanone], for which the “effect on homomeric GluA1 responses” value at GluA1 is “no effects”.

Turning to `COc1ccc(OCC2c3cc(OC)c(OC)cc3CCN2C(=O)c2cccc(C#N)c2)cc1` (centres unmarked) [compound 98, 3-(6,7-dimethoxy-1-((4-methoxyphenoxy)methyl)-1,2,3,4-tetrahydroisoquinoline-2-carbonyl)benzonitrile], the “effect on homomeric GluA1 responses” value on GluA1 is recorded as “no effects”.

In the case of `CCOc1ccc(OCC2c3cc(OC)c(OC)cc3CCN2C(=O)c2cccc(Cl)c2)cc1` (centres unmarked) [compound 100, (3-chlorophenyl)(1-((4-ethoxyphenoxy)methyl)-6,7-dimethoxy-3,4-dihydroisoquinolin-2(1H)-yl)methanone], in assay [1], the “activity on GluN2C- or GluN2D-containing receptors” value (shortened to “activity”) is given as “no detectable activity”.

Turning to `CCOc1ccc(OCC2c3cc(OC)c(OC)cc3CCN2C(=O)c2cccc(Br)c2)cc1` (centres unmarked) [compound 101, (3-bromophenyl)(1-((4-ethoxyphenoxy)methyl)-6,7-dimethoxy-3,4-dihydroisoquinolin-2(1H)-yl)methanone], in assay [1], the “activity” value is “no detectable activity”.

Regarding `COc1ccc(OCC2c3cc4c(cc3CCN2C(=O)c2cccc(Cl)c2)OCO4)cc1` (centres unmarked) [compound 111, (3-chlorophenyl)(5-((4-methoxyphenoxy)methyl)-7,8-dihydro-[1,3]dioxolo[4,5-g]isoquinolin-6(5H)-yl)methanone], at GluA1, the “effect on homomeric GluA1 responses” value is “no effects”.

In the case of `COc1ccc(OCC2c3ccc(OC)cc3CCN2C(=O)c2cccc(Cl)c2)cc1` (centres unmarked) [compound 117, (3-chlorophenyl)(6-methoxy-1-((4-methoxyphenoxy)methyl)-3,4-dihydroisoquinolin-2(1H)-yl)methanone], the “effect on homomeric GluA1 responses” value on GluA1 is reported as “no effects”.

Consider `COc1ccc(OCC2c3ccc(OC)cc3CCN2C(=O)c2cccc(Br)c2)cc1` (centres unmarked) [compound 118, (3-bromophenyl)(6-methoxy-1-((4-methoxyphenoxy)methyl)-3,4-dihydroisoquinolin-2(1H)-yl)methanone], for which the “effect on homomeric GluA1 responses” value on GluA1 is “no effects”.

For the compound `COc1ccc(OCC2c3ccc(OC)c(OC)c3CCN2C(=O)c2cccc(Cl)c2)cc1` (centres unmarked) [compound 120, (3-chlorophenyl)(5,6-dimethoxy-1-((4-methoxyphenoxy)methyl)-3,4-dihydroisoquinolin-2(1H)-yl)methanone], in assay [1], the “activity” value was “inactive”.

For `COc1ccc(OCC2c3ccc(OC)c(OC)c3CCN2C(=O)c2cccc(Br)c2)cc1` (centres unmarked) [compound 121, (3-bromophenyl)(5,6-dimethoxy-1-((4-methoxyphenoxy)methyl)-3,4-dihydroisoquinolin-2(1H)-yl)methanone], the “activity” value in assay [1] was “inactive”.

With `COc1ccc(OCC2c3cc(C)c(C)cc3CCN2C(=O)c2cccc(Cl)c2)cc1` (centres unmarked) [compound 122, (3-chlorophenyl)(1-((4-methoxyphenoxy)methyl)-6,7-dimethyl-3,4-dihydroisoquinolin-2(1H)-yl)methanone], the EC50 in assay [1] was around 1 µM.

Turning to `COc1ccc(OCC2c3cc(C)c(C)cc3CCN2C(=O)c2cccc(Br)c2)cc1` (centres unmarked) [compound 123, (3-bromophenyl)(1-((4-methoxyphenoxy)methyl)-6,7-dimethyl-3,4-dihydroisoquinolin-2(1H)-yl)methanone], in assay [1], the EC50 was around 1 µM.

Turning to `COc1ccc(SCC2c3cc(OC)c(OC)cc3CCN2C(=O)c2ccccc2)cc1` (centres unmarked) [compound 127, (6,7-dimethoxy-1-(((4-methoxyphenyl)thio)methyl)-3,4-dihydroisoquinolin-2(1H)-yl)(phenyl)methanone], the “activity” value in assay [1] was “eliminated activity”.

For `COc1cc2c(cc1OC)C(COc1ccc([N+](=O)[O-])cc1)N(C(=O)c1ccccc1)CC2` (centres unmarked) [compound 128, (6,7-dimethoxy-1-((4-nitrophenoxy)methyl)-3,4-dihydroisoquinolin-2(1H)-yl)(phenyl)methanone], the “activity” value in assay [1] is recorded as “no detectable activity”.

As for `COc1cc2c(cc1OC)C(COc1ccc([N+](=O)[O-])cc1)N(C(=O)c1cccc(Cl)c1)CC2` (centres unmarked) [compound 129, (3-chlorophenyl)(6,7-dimethoxy-1-((4-nitrophenoxy)methyl)-3,4-dihydroisoquinolin-2(1H)-yl)methanone], the “activity” value in assay [1] is “no detectable activity”.

For `COc1cc2c(cc1OC)C(COc1ccc([N+](=O)[O-])cc1)N(C(=O)c1cccc(Br)c1)CC2` (centres unmarked) [compound 130, ((3-bromophenyl)(6,7-dimethoxy-1-((4-nitrophenoxy)methyl)-3,4-dihydroisoquinolin-2(1H)-yl)methanone)], the “activity” value in assay [1] is “no detectable activity”.

Regarding `COc1cc2c(cc1OC)C(COc1ccc(N)cc1)N(C(=O)c1ccccc1)CC2` (centres unmarked) [compound 131, ((1-((4-aminophenoxy)methyl)-6,7-dimethoxy-3,4-dihydroisoquinolin-2(1H)-yl)(phenyl)methanone)], the “activity” value in assay [1] is listed as “no detectable activity”.

On to `COc1cc2c(cc1OC)C(COc1ccc(N)cc1)N(C(=O)c1cccc(Cl)c1)CC2` (centres unmarked) [compound 132, ((1-((4-aminophenoxy)methyl)-6,7-dimethoxy-3,4-dihydroisoquinolin-2(1H)-yl)(3-chlorophenyl)methanone)], for which the “activity” value in assay [1] is “no detectable activity”.

`COc1cc2c(cc1OC)C(COc1ccc(N)cc1)N(C(=O)c1cccc(Br)c1)CC2` (centres unmarked) [compound 133, ((1-((4-aminophenoxy)methyl)-6,7-dimethoxy-3,4-dihydroisoquinolin-2(1H)-yl)(3-bromophenyl)methanone)]: in assay [1], the “activity” value was “no detectable activity”.

In the case of `COc1ccc(OCC2c3cc(OC)c(OC)cc3CCN2C(=O)c2ccc3ccccc3c2)cc1` (centres unmarked) [compound 138, (6,7-dimethoxy-1-((4-methoxyphenoxy)methyl)-3,4-dihydroisoquinolin-2(1H)-yl)(naphthalen-2-yl)methanone], the “effect on homomeric GluA1 responses” value at GluA1 is given as “no effects”.

On to `COc1ccc(OCC2c3cc(OC)c(OC)cc3CCN2C(=O)CN2CCOCC2)cc1` (centres unmarked) [compound 140, 1-(6,7-dimethoxy-1-((4-methoxyphenoxy)methyl)-3,4-dihydroisoquinolin-2(1H)-yl)-2-morpholinoethanone], for which the “effect on homomeric GluA1 responses” value on GluA1 is “no effects”.

With `COc1ccc(OCC2c3cc(OC)c(OC)cc3CCN2Cc2ccccc2)cc1` (centres unmarked) [compound 141, 2-benzyl-6,7-dimethoxy-1-((4-methoxyphenoxy)methyl)-1,2,3,4-tetrahydroisoquinoline], the “activity” value in assay [1] is on record as “eliminated all activity”.

For the compound `COc1ccc(/C=C/C2c3cc(OC)c(OC)cc3CCN2C(=O)c2ccccc2)cc1` (centres unmarked) [compound 155, (E)-(6,7-dimethoxy-1-(4-methoxystyryl)-3,4-dihydroisoquinolin-2(1H)-yl)(phenyl)methanone], the “effect on homomeric GluA1 responses” value on GluA1 is on record as “no effects”.

As for `COc1ccc(/C=C/C2c3cc(OC)c(OC)cc3CCN2C(=O)c2cccc(Br)c2)cc1` (centres unmarked) [compound 157, (E)-(3-bromophenyl)(6,7-dimethoxy-1-(4-methoxystyryl)-3,4-dihydroisoquinolin-2(1H)-yl)methanone], the “effect on homomeric GluA1 responses” value at GluA1 is “no effects”.

Consider `COc1ccc(/C=C/C2c3ccc(OC)cc3CCN2C(=O)c2cccc(Cl)c2)cc1` (centres unmarked) [compound 158, (E)-(3-chlorophenyl)(6-methoxy-1-(4-methoxystyryl)-3,4-dihydroisoquinolin-2(1H)-yl)methanone], for which the “effect on homomeric GluA1 responses” value on GluA1 is on record as “no effects”.

As for `COc1ccc(/C=C/C2c3ccc(OC)cc3CCN2C(=O)c2cccc(Br)c2)cc1` (centres unmarked) [compound 159, (E)-(3-bromophenyl)(6-methoxy-1-(4-methoxystyryl)-3,4-dihydroisoquinolin-2(1H)-yl)methanone], the “effect on homomeric GluA1 responses” value on GluA1 is “no effects”.

Consider `COc1ccc(CCC2c3cc(OC)c(OC)cc3CCN2C(=O)c2cccc(Cl)c2)cc1` (centres unmarked) [compound 161, (3-chlorophenyl)(6,7-dimethoxy-1-(4-methoxyphenethyl)-3,4-dihydroisoquinolin-2(1H)-yl)methanone], for which the “effect on homomeric GluA1 responses” value at GluA1 is “no effects”.

Take `COc1ccc(OCC2c3cc(OC)c(OC)cc3CCN2C(=S)Nc2ccccc2)cc1` (centres unmarked) [compound 211]: the “activity” value in assay [1] is recorded as “loss of activity”.

For `COc1ccc(OCC2c3cc(OC)c(OC)cc3CCN2C(=S)Nc2cccc(Cl)c2)cc1` (centres unmarked) [compound 212], the “activity” value in assay [1] was “loss of activity”.

As for `COc1ccc(OCC2c3cc(OC)c(OC)cc3CCN2C(=S)Nc2cccc(F)c2)cc1` (centres unmarked) [compound 213], in assay [1], the “activity” value was “loss of activity”.

For the compound `COc1ccc(OCC2c3cc(OC)c(OC)cc3CCN2C(=S)Nc2cccc(Br)c2)cc1` (centres unmarked) [compound 214], the “activity” value in assay [1] is on record as “loss of activity”.

For `COc1ccc(OCC2c3cc(OC)c(OC)cc3CCN2C(=S)Nc2cccc(C)c2)cc1` (centres unmarked) [compound 215], the “activity” value in assay [1] is “weak potentiating activity”.

On to `COc1ccc(OCC2c3cc(OC)c(OC)cc3CCN2S(=O)(=O)c2ccccc2)cc1` (centres unmarked) [compound 216], for which the “activity” value in assay [1] was “eliminated all activity”.

`COc1ccc(OCC2c3cc(OC)c(OC)cc3CCN2S(=O)(=O)c2cccc(Cl)c2)cc1` (centres unmarked) [compound 217]: the “activity” value in assay [1] is “eliminated all activity”.
